Results taken from patent US20110091570A1, “Compositions and Devices for Antisepsis and Anticoagulation” (priority 2008, published 2011).
“And” between values parts separate entries of the source, which are not always exact repeats. Equal values may be shown once.

Assays:
citrate blood [1] = assay: Activated partial thromboplastin time (aPTT), Pathromtin SL test; format: biochemical, human; conditions: for aPTT / aPTT (sec): Example 6, single volunteer; for Activated partial thromboplastin time (aPTT) / Activated partial thromboplastin time (aPTT), mean value: Example 7; for Activated partial thromboplastin time (aPTT): individual subjects 1-11; for Activated partial thromboplastin time (aPTT), mean value: mean of 11 subjects
Procedure: Whole blood was taken from volunteers and enriched with trisodium citrate (0.3 mL of a 0.106 molar solution per 3 mL whole blood) (S-Monovette®, Sarstedt, Nümbrecht, Germany). Routine coagulation tests were performed on the following samples:
The following commercial coagulation tests were performed according to the prescription of the manufacturer: prothrombin time (PT) was determined using Thromborel® S test (Dade Behring GmbH, Marburg, Germany); activated partial thromboplastin time (aPTT) was determined using Pathromtin* SL test (Dade Behring GmbH, Marburg, Germany); and thrombin time (TT) was determined using BC Thrombin Reagent test (Dade Behring GmbH, Marburg, Germany).
Whole blood was taken from a single volunteer and enriched with trisodium citrate (0.3 mL of a 0.106 molar solution per 3 mL whole blood) (S-Monovette®, Sarstedt, Nümbrecht, Germany). Portions of 1.8 mL citrate blood were mixed with 0.2 mL NCT in 0.9% saline. The following final (after dilution in blood) NCT concentrations were tested separately: 1% (55 mM); 0.5% (27.5 mM); 0.25% (13.75 mM); 0.1% (5.5 mM); 0.05% (2.75 mM); 0.025% (1.375 mM); and 0.01% (0.55 mM). A control without NCT was performed in parallel. The following commercial coagulation tests were performed according to the prescription of the manufacturer: prothrombin time (PT) was determined using Thromborel® S test (Dade Behring GmbH, Marburg, Germany), activated partial thromboplastin time (aPTT) was determined using Pathromtin* SL test (Dade Behring GmbH, Marburg, Germany); thrombin time (TT) was determined using BC Thrombin Reagent test (Dade Behring GmbH, Marburg, Germany); and fibrinogen was determined using Multifibren* U test (Dade Behring GmbH, Marburg, Germany).
(§1) Whole blood was taken from 11 volunteers and enriched with trisodium citrate (0.3 mL of a 0.106 molar solution per 3 mL whole blood) (S-Monovette®, Sarstedt, Nümbrecht, Germany). Commercial coagulation tests (as described in Example 6) were performed with the following samples: […]

Balb/c mice = assay: Injection of 1% NCT solution into the tail vein of mice (tolerability); format: in vivo, mouse
Procedure: In this model, injection of 1% aqueous NCT solution was tolerated at a volume that equals approximately 10% of the total blood volume of a mouse. A 1% solution contains 55 mmol/L NCT, which is more than 1000 times greater than any physiologic concentration produced by human leukocytes.
Balb/c mice were injected into the tail vein with a sterile aqueous solution of 1% NCT. Four mice were injected with 0.05 ml, four mice with 0.1 ml, one mouse with 0.2 ml, and one mouse with 0.3 ml, respectively, of the NCT solution.
In this Example, injection of 1% aqueous NCT solution was tolerated in the mouse model at a volume that equals approximately 10% of the total blood volume of a mouse.

Pseudomonas aeruginosa = assay: Bactericidal activity of NCT without and with heparin (CFU counts); format: cell-based
external otitis = conditions: human external otitis [Ref 15]; cited from earlier work
[2] = system: Staphylococcus epidermidis; assay: Bactericidal activity of NCT without and with heparin (CFU counts); format: cell-based
[3] = system: purulent coated crural ulcers; conditions: purulent coated crural ulcers [Ref. 17]; cited from earlier work
citrate blood [4] = assay: International normalized ratio (INR); format: biochemical, human; conditions: Example 7; for International normalized ratio (INR): individual subjects 1-11; for International normalized ratio (INR), mean value: mean of 11 subjects
Procedure: as §1

[5] = Balb/c mice, sterile aqueous 1% NCT, 0.05-0.3 ml i.v.
[6] = 0.1% NCT, virtually identical experiments
[7] = 1% NCT, 125 IE/mL heparin, pH 7.1, 37° C., 1-10 min

O=S(=O)(O)CCNCl [NCT, N-chlorotaurine]
activated partial thromboplastin time (citrate blood [1]; Example 5, 1% NCT final concentration in citrate blood): above the test limits | aPTT (citrate blood [1]; 0.01% (0.55 mM) NCT final): 30.6 s | aPTT (citrate blood [1]; 0.025% (1.375 mM) NCT final): 37.7 s | aPTT (citrate blood [1]; 0.05% (2.75 mM) NCT final): 71.3 s | aPTT (citrate blood [1]; 0.1% (5.5 mM) NCT final): 371.4 s | aPTT (sec) (citrate blood [1]; 0.25% (13.75 mM) NCT final): >limit | aPTT (sec) (citrate blood [1]; 0.5% (27.5 mM) NCT final): >limit | aPTT (sec) (citrate blood [1]; 1% (55 mM) NCT final): >limit | Activated partial thromboplastin time (aPTT) (citrate blood [1]; 0.01% NCT): 39 sec (2×) and 41 sec and 32 sec and 47 sec and 37 sec (2×) and 35 sec and 40 sec and 36 sec and 31 sec | Activated partial thromboplastin time (aPTT), mean value (citrate blood [1]; 0.01% NCT): 37.6 s | Activated partial thromboplastin time (aPTT) (citrate blood [1]; 0.025% NCT): 93 sec and 113 sec and 49 sec and 238 sec and 142 sec and 129 sec and 91 sec (2×) and 167 sec and 70 sec and 71 sec | Activated partial thromboplastin time (aPTT), mean value (citrate blood [1]; 0.025% NCT): 114.0 s | tolerated injection volume (Balb/c mice; 1% aqueous NCT solution i.v.): approximately 10 % of the total blood volume of a mouse | changes of behaviour after tail vein injection (Balb/c mice; [5]): no changes of behaviour | survival after tail vein injection (Balb/c mice; [5]): all mice survived | influence of heparin on the killing of bacteria (Pseudomonas aeruginosa; [6]): no statistically significant influence of heparin on the killing of bacteria | killing activity of NCT with vs without heparin (Pseudomonas aeruginosa; [7]): no difference in the killing activity | efficacy versus standard medication (external otitis): more effective than a standard medication | influence of heparin on the killing of bacteria [2, 6]: no statistically significant influence of heparin on the killing of bacteria | killing activity of NCT with vs without heparin [2, 7]: no difference in the killing activity | pain and toxicity versus chloramine T [3]: significantly less pain and was less toxic than chloramine T | International normalized ratio (INR) (citrate blood [4]; 0.01% NCT): 1.2 (5×) and 1.3 (3×) and 1.1 (3×) | International normalized ratio (INR), mean value (citrate blood [4]; 0.01% NCT): 1.2 | International normalized ratio (INR) (citrate blood [4]; 0.025% NCT): 2.6 and 3.3 (2×) and 1.5 and 6 and 4.2 and 2.8 and 4.4 and 2 and 2.9 and 2.3 | International normalized ratio (INR), mean value (citrate blood [4]; 0.025% NCT): 3.2
